{"source": "patent US8221745B2", "about": "(Velico Medical, Inc., priority 2004, dated 2012)", "key": {"[1]": {"test_system": "differentiated monocytic cell line THP-1", "experiment": "In vitro phagocytic assay: ingestion of chilled or room temperature human platelets by THP-1 cells", "assay_type": "cell-based", "settings": "for inhibitory effect on chilled platelet phagocytosis (in words): phagocytes incubated in monosaccharide solutions at various concentrations; for inhibitory effect on RT platelet phagocytosis (in words): room temperature platelets", "experimental": "CR3 expression was monitored by flow cytometry using a PE-conjugated anti-human CD11b/Mac-1 mAb. Undifferentiated or differentiated THP-1 cells (2×10^6/ml) were plated onto 24-well plates and allowed to adhere for 45 minutes at 37° C. The adherent undifferentiated or differentiated macrophages were activated by the addition of 15 ng/ml PMA for 15 min. CM-range-labeled, chilled or room temperature platelets (10^7/well), previously subjected to different treatments were added to the undifferentiated or differentiated phagocytes in Ca^2+- and Mg^2+-containing HBSS and incubated for 30 min at 37° C. Following the incubation period, the phagocyte monolayer was washed with HBSS for 3 times, and adherent platelets were removed by treatment with 0.05% trypsin/0.53 mM EDTA in HBSS at 37° C. for 5 min followed by 5 mM EDTA at 4° C. to detach the macrophages for flow cytometric analysis of adhesion or ingestion of platelets (Brown et al., 2000). […] CM-Orange-labeled platelets incubated with macrophages were resolved from the phagocytes according to their forward and side scatter properties. The macrophages were gated, 10,000 events acquired for each sample, and data analyzed with CELLQuest software (Becton Dickenson).\nTo analyze the effects of monosaccharides on platelet phagocytosis, phagocytes (differentiated monocytic cell line THP-1) were incubated in monosaccharide solutions at various concentrations, and the chilled or room temperature platelets were added. Values in the Figures are means±SD of 3-5 experiments comparing percentages of orange-positive monocytes containing ingested platelets incubated with RT or chilled platelets)."}, "human platelets [2]": {"test_system": "human platelets", "experiment": "RCA I lectin binding to platelets by flow cytometry", "assay_type": "cell-based", "settings": "chilled or room temperature human platelets; control nucleotides"}, "chilled human platelets": {"test_system": "chilled human platelets", "experiment": "FITC-WGA / S-WGA lectin binding to platelets by flow cytometry", "assay_type": "cell-based", "settings": "chilled or room temperature human platelets; control nucleotides", "protocol": "We then investigated whether wheat germ agglutinin (WGA), a lectin with specificity towards the terminal sugar (GlcNAc), binds more effectively to chilled platelets than to room temperature platelets. Washed, chilled or room temperature platelets were incubated with 2 μg/ml of FITC coupled WGA or FITC coupled succinyl-WGA for 30 min at room temperature and analyzed by flow cytometry.\nTo analyze whether removal of GlcNAc residues reduces the binding of WGA to the platelet surface, chilled and room temperature washed human platelets were treated with 100 U/ml β-Hex for 30 min at 37° C."}, "human platelets [3]": {"test_system": "human platelets", "experiment": "Immunolabeling and flow cytometry of chilled versus room temperature platelets (human)", "assay_type": "cell-based", "settings": "mean±SD, n=3−4", "experimental": "(§1) Washed murine or human platelets (2×10^6) were analyzed for surface expression of CD62P, CD61, or surface bound IgM and IgG after chilling or room temperature storage by staining with fluorophore-conjugated Abs (5 μg/ml) for 10 min at 37° C. Phosphatidylserine exposure by chilled or room temperature platelets was determined by resuspending 5 μl of platelets in 400 μl of HBSS containing 10 mM Ca^2+ with 10 μg/ml of FITC-conjugated annexin-V. As a positive control for PS exposure, platelet suspensions were stimulated with 1 μM A23187. Fibrinogen binding was determined by the addition of Oregon Green-fibrinogen for 20 min at room temperature. All platelet samples were analyzed immediately by flow cytometry. Platelets were gated by forward and side scatter characteristics.\n(§2) The binding of fluorescently labeled antibodies or ligands against various receptors on chilled-rewarmed or room temperature human and murine platelets was measured by flow cytometry. The data are expressed as the ratio between the mean fluorophore bound to the surface of chilled versus room temperature platelets (mean±SD, n=3−4)."}, "Murine platelets": {"test_system": "Murine platelets", "experiment": "Immunolabeling and flow cytometry of chilled versus room temperature platelets (murine)", "assay_type": "cell-based", "settings": "mean±SD, n=3−4", "experimental": "as §1, §2"}, "[4]": {"settings": "mice lacking 2,3Sialyltransferase IV; cited from earlier work"}, "[5]": {"test_system": "platelet membrane glycoproteins", "experiment": "Incorporation of 14C-labeled sugars into endogenous platelet glycoproteins (SDS-PAGE, autoradiography)", "assay_type": "biochemical, human", "settings": "intact non-lysed platelets", "protocol": "Transfer of sialic acids to endogenous glycoproteins by platelet sialyltransferase activity was tested in two ways. […] Intact platelets suspended in buffer (140 mM NaCl, 3 mM KCl, 0.5 mM MgCl2, 5 mM NaHCO3, 10 mM Hepes, pH 7.4) were used to assess the capacity of surface exposed sialyltransferase activity to transfer to platelet membrane glycoproteins. […] Thus, it was possible to use three different glycan modification strategies: addition of 1) UDP-[^14C]-galactose, 2) UDP-[^14C]-galactose and CMP-[^14C]-sialic acid, and 3) CMP-[^14C]-sialic acid alone. The incorporation of radioactive sugar nucleotides were monitored by SDS-PAGE chromatography followed by autoradiography.\nThe incorporation of radioactive carbohydrate sialic acid in endogenous platelet acceptor proteins was evaluated by incubating either detergent lysed platelets or non-lysed platelets with CMP-[^14C]-sialic. The incorporation ^14C-sialic acid was monitored by SDS-PAGE chromatography of the glycosylation mixture followed by autoradiography. Briefly, human apheresis platelets were washed and resuspended in resuspension buffer (40 mM NaCl, 3 mM KCl, 0.5 mM MgCl2, 5 mM NaHCO3, 10 mM Hepes, pH 7.4) and split in two fractions. One fraction was incubated with addition of CMP-[^14C]-sialic acid at 37° C. for 60 minutes. […]"}}}
{"molecule": "O=C[C@H](O)[C@@H](O)[C@@H](O)[C@H](O)CO", "note": "[D-(+)-galactose]", "values": [{"measurement": "% inhibition phagocytosis", "setting": "[1]; chilled platelets, monosaccharide 100 mM", "result": "did not significantly inhibit"}]}
{"molecule": "O=C[C@@H](O)[C@@H](O)[C@H](O)[C@H](O)CO", "note": "[D-(+)-mannose]", "values": [{"measurement": "inhibitory effect on chilled platelet phagocytosis (in words)", "setting": "[1]; chilled platelets", "result": "no inhibitory effect"}, {"measurement": "inhibitory effect on RT platelet phagocytosis (in words)", "setting": "[1]", "result": "no inhibitory effect"}]}
{"molecule": "CC(=O)N[C@H]1C(O)O[C@H](CO)[C@@H](O)[C@@H]1O", "note": "(stereo partly drawn) [GlcNac, N-acetyl-D-glucosamine]", "values": [{"measurement": "inhibition of chilled platelet phagocytosis (in words)", "setting": "[1]; 25 to 200 mM", "result": "significantly inhibited"}]}
{"molecule": "CO[C@H]1O[C@H](CO)[C@@H](O)[C@H](O)[C@H]1O", "note": "[Methyl-α-D-glucopyranoside]", "values": [{"measurement": "inhibitory effect on chilled platelet phagocytosis (in words)", "setting": "[1]; chilled platelets", "result": "did not have an inhibitory effect"}]}
{"molecule": "CO[C@H]1O[C@H](CO)[C@@H](O)[C@H](O)[C@@H]1O", "note": "[Methyl-α-D-mannopyranoside]", "values": [{"measurement": "inhibitory effect on chilled platelet phagocytosis (in words)", "setting": "[1]; chilled platelets", "result": "no inhibitory effect"}, {"measurement": "inhibitory effect on RT platelet phagocytosis (in words)", "setting": "[1]", "result": "no inhibitory effect"}]}
{"molecule": "COC1OC(CO)C(O)C(O)C1O", "note": "[Methyl-β-D-gludopyranoside]", "values": [{"measurement": "inhibitory effect on chilled platelet phagocytosis (in words)", "setting": "[1]; chilled platelets", "result": "inhibited phagocytosis in a dose-dependent manner"}]}
{"molecule": "CO[C@@H]1O[C@H](CO)[C@@H](O)[C@H](O)[C@@H]1O", "note": "[Methyl-β-D-mannopyranoside]", "values": [{"measurement": "inhibitory effect on chilled platelet phagocytosis (in words)", "setting": "[1]; chilled platelets", "result": "no inhibitory effect"}, {"measurement": "inhibitory effect on RT platelet phagocytosis (in words)", "setting": "[1]", "result": "no inhibitory effect"}]}
{"molecule": "O=c1ccn([C@@H]2O[C@H](COP(=O)(O)OP(=O)(O)O)[C@@H](O)[C@H]2O)c(=O)[nH]1", "note": "[UDP]", "values": [{"measurement": "effect on RCA I binding", "setting": "human platelets [2]", "result": "no effect"}, {"measurement": "effect on S-WGA binding", "setting": "chilled human platelets", "result": "no effect"}]}
{"molecule": "CC(=O)N[C@@H]1[C@@H](O)[C@H](O)[C@@H](CO)O[C@H]1O", "note": "[β-GlcNac]", "values": [{"measurement": "inhibition of the phagocytosis of chilled platelets", "setting": "[1]; 10 μM", "result": 80, "unit": "%"}, {"measurement": "inhibitory effect on chilled platelet phagocytosis (in words)", "setting": "[1]; chilled platelets", "result": "strongly inhibited"}]}
{"molecule": "annexin V: FITC-conjugated annexin-V, ligand for phosphatidylserine exposure", "values": [{"measurement": "Binding ratio 4° C.:22° C.", "setting": "human platelets [3]", "result": "0.95 ± 0.09"}, {"measurement": "Binding ratio 4° C.:22° C.", "setting": "Murine platelets", "result": "1.04 ± 0.02"}]}
{"molecule": "asialofetuin", "values": [{"measurement": "platelet count", "setting": "[4]", "result": "corrects the platelet count"}]}
{"molecule": "cytidine monophospho-N-acetylneuraminic acid [CMP-sialic acid]", "values": [{"measurement": "incorporation of radioactive sugar into platelet membrane glycoproteins", "setting": "[5]", "result": "high level of incorporation"}]}
{"molecule": "fibrinogen", "values": [{"measurement": "Binding ratio 4° C.:22° C.", "setting": "human platelets [3]", "result": "1.05 ± 0.10"}, {"measurement": "Binding ratio 4° C.:22° C.", "setting": "Murine platelets", "result": "1.06 ± 0.06"}]}
